Measurements published in patent US9433622B2, “Pyrimidine compounds useful in the treatment of diseases mediated by IKKE and/or TBK1 mechanisms” (DOMAINEX LIMITED, priority 2013, dated 2016).

Assays:
[1] = molecular target: TBK1 (Homo sapiens (Human), UniProt Q9UHD2); assay: Lanthascreen TR-FRET kinase inhibition assay, TBK1; assay type: biochemical; conditions: 20 μM ATP (apparent Km), 8 nM kinase, 2.5 h
How it was run: (§1)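 TR-FRET: terbium phosphospecific antibody detects phosphorylation of 400 nM fluorescein-IkBα peptide, 20 μM ATP, 20 °C, HEPES pH 7.5 with 3% DMSO. IKKε at 2 nM, 1 h reaction; TBK1 at 8 nM, 2.5 h reaction; started by kinase addition.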

[2] = molecular target: IKKε (Homo sapiens (Human), UniProt Q14164); assay: Lanthascreen TR-FRET kinase inhibition assay, IKKε; assay type: biochemical; conditions: 20 μM ATP (apparent Km), 2 nM kinase, 1 h
How it was run: as §1

Sequence of IKKε (Q14164 whole entry): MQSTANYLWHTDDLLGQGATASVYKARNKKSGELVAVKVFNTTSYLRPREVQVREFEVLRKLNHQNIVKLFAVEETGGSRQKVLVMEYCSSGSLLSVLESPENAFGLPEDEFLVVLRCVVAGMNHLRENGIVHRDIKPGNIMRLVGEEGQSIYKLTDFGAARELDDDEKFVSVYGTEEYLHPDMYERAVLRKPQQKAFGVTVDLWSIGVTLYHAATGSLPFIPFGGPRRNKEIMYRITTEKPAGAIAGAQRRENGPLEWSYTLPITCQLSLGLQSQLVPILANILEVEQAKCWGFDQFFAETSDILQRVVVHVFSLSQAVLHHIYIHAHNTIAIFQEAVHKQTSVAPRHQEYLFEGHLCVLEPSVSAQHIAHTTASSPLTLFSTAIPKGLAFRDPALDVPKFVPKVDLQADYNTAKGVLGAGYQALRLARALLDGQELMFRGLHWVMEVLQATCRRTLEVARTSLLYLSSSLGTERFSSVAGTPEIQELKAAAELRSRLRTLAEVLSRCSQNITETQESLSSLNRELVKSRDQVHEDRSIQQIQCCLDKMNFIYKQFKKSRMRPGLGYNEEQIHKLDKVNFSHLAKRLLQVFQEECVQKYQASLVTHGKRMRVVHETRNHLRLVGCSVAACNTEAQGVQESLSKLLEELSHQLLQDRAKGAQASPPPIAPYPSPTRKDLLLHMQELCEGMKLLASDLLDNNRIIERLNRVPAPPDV
Sequence of TBK1 (Q9UHD2 whole entry): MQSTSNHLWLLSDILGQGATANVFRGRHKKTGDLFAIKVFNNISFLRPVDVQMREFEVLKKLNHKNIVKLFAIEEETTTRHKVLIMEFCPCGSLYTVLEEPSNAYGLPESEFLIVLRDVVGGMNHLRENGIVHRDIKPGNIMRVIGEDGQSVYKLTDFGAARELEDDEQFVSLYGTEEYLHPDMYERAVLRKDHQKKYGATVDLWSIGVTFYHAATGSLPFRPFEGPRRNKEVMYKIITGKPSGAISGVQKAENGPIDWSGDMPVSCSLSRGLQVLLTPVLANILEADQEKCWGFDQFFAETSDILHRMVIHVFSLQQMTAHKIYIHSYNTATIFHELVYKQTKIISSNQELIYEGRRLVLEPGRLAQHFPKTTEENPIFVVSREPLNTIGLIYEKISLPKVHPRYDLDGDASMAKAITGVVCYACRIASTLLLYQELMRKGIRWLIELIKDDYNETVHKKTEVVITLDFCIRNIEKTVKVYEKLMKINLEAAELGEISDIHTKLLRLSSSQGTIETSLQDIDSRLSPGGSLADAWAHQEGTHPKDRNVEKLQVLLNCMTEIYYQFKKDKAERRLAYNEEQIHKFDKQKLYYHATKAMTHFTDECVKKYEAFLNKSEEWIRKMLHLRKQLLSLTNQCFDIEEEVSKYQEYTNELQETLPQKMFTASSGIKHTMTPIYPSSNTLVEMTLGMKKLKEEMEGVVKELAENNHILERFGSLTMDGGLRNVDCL

Row | Structure (SMILES) | IC50 [1] | IC50 [2]
1 | N#Cc1cc(-c2ccnc(Nc3cnn(C[C@H](O)CO)c3)n2)cnc1N1CCCC1 [DMX-38, 5-{2-[1-((S)-2,3-Dihydroxy-propyl)-1H-pyrazol-4-ylamino]-pyrimidin-4-yl}-2-pyrrolidin-1-yl-nicotinonitrile] | < 15 nM | < 100 nM
2 | N#Cc1nc(-c2ccnc(Nc3ccc(NC(=O)CN4CCOCC4)nc3)n2)ccc1N1CC[C@H](O)C1 [DMX-141, N-(5-{4-[6-Cyano-5-((S)-3-hydroxy-pyrrolidin-1-yl)-pyridin-2-yl]-pyrimidin-2-ylamino}-pyridin-2-yl)-2-morpholin-4-yl-acetamide] | < 100 nM | < 100 nM
3 | Cc1nccn1Cc1ccc(Nc2nccc(-c3cnc(N4CC[C@H](F)C4)c(C#N)c3)n2)cn1 [DMX-81, 2-((S)-3-Fluoro-pyrrolidin-1-yl)-5-{2-[6-(2-methyl-imidazol-1-ylmethyl)-pyridin-3-ylamino]-pyrimidin-4-yl}-nicotinonitrile] | < 30 nM | < 30 nM
4 | N#Cc1cc(-c2ccnc(Nc3ccc(CN4CCOCC4)nc3)n2)cnc1N1CC[C@H](F)C1 [DMX-68, 2-((S)-3-Fluoro-pyrrolidin-1-yl)-5-[2-(6-morpholin-4-ylmethyl-pyridin-3-ylamino)-pyrimidin-4-yl]-nicotinonitrile] | < 15 nM | < 15 nM
5 | N#Cc1nc(-c2ccnc(Nc3ccc(CN4CCOCC4)nc3)n2)ccc1N1CC[C@H](F)C1 [DMX-143, 3-((S)-3-Fluoro-pyrrolidin-1-yl)-6-[2-(6-morpholin-4-ylmethyl-pyridin-3-ylamino)-pyrimidin-4-yl]-pyridine-2-carbonitrile] | < 15 nM | < 15 nM
6 | Cn1cc(Nc2nccc(-c3cnc(N4CCC[C@@H]4C(N)=O)c(C#N)c3)n2)cn1 [DMX-43, (R)-1-{3-Cyano-5-[2-(1-methyl-1H-pyrazol-4-ylamino)-pyrimidin-4-yl]-pyridin-2-yl}-pyrrolidine-2-carboxylic acid amide] | < 100 nM | < 100 nM
7 | COCCNCc1ccc(Nc2nccc(-c3ccc(N4CC[C@H](F)C4)c(C#N)n3)n2)cn1 [DMX-157, 3-((S)-3-Fluoro-pyrrolidin-1-yl)-6-(2-{6-[(2-methoxy-ethylamino)-methyl]-pyridin-3-ylamino}-pyrimidin-4-yl)-pyridine-2-carbonitrile] | < 30 nM | < 100 nM
8 | CN(C(=O)CN1CCOCC1)c1ccc(Nc2nccc(-c3cnc(N4CC[C@H](O)C4)c(C#N)c3)n2)cn1 [DMX-75, N-(5-{4-[5-Cyano-6-((S)-3-hydroxy-pyrrolidin-1-yl)-pyridin-3-yl]-pyrimidin-2-ylamino}-pyridin-2-yl)-N-methyl-2-morpholin-4-yl-acetamide] | < 1000 nM | < 1000 nM
9 | N#Cc1cc(-c2ccnc(Nc3cccc(C(N)=O)c3)n2)cnc1N1CCCC1 [DMX-2, 3-[4-(5-Cyano-6-pyrrolidin-1-yl-pyridin-3-yl)-pyrimidin-2-ylamino]-benzamide] | < 30 nM | < 30 nM
10 | N#Cc1cc(-c2ccnc(Nc3ccc(N4CCOCC4)nc3)n2)cnc1N1CC[C@H](O)C1 [DMX-50, 2-((S)-3-Hydroxy-pyrrolidin-1-yl)-5-[2-(6-morpholin-4-yl-pyridin-3-ylamino)-pyrimidin-4-yl]-nicotinonitrile] | < 30 nM | < 100 nM
11 | Cc1nccn1Cc1ccc(Nc2nccc(-c3ccc(N4CC[C@H](F)C4)c(C#N)n3)n2)cn1 [DMX-151, 3-((S)-3-Fluoro-pyrrolidin-1-yl)-6-{2-[6-(2-methyl-imidazol-1-ylmethyl)-pyridin-3-ylamino]-pyrimidin-4-yl}-pyridine-2-carbonitrile] | < 30 nM | < 30 nM
12 | N#Cc1nc(-c2ccnc(Nc3ccc(CN4CCNC(=O)C4)nc3)n2)ccc1N1CC[C@H](F)C1 [DMX-156, 3-((S)-3-Fluoro-pyrrolidin-1-yl)-6-{2-[6-(3-oxo-piperazin-1-ylmethyl)-pyridin-3-ylamino]-pyrimidin-4-yl}-pyridine-2-carbonitrile] | < 15 nM | < 15 nM
13 | N#Cc1cc(-c2nc(Nc3ccnc(NC(=O)CN4CCOCC4)c3)ncc2F)cnc1NC1CC1 [DMX-124, N-{4-[4-(5-Cyano-6-cyclopropylamino-pyridin-3-yl)-5-fluoro-pyrimidin-2-ylamino]-pyridin-2-yl}-2-morpholin-4-yl-acetamide] | < 100 nM | < 1000 nM
14 | CC(=O)Nc1ccc(Nc2nccc(-c3cnc(N[C@@H]4CCOC4)c(C#N)c3)n2)cn1 [DMX-113, N-[5-(4-{5-Cyano-6-[(R)-(tetrahydro-furan-3-yl)amino]-pyridin-3-yl}-pyrimidin-2-ylamino)-pyridin-2-yl]-acetamide] | < 1000 nM | < 1000 nM
15 | N#Cc1cc(-c2nc(Nc3ccc(NC(=O)CN4CCOCC4)nc3)ncc2F)cnc1N1CCCOCC1 [DMX-86, N-{5-[4-(5-Cyano-6-[1,4]oxazepan-4-yl-pyridin-3-yl)-5-fluoro-pyrimidin-2-ylamino]-pyridin-2-yl}-2-morpholin-4-yl-acetamide] | < 100 nM | < 1000 nM
16 | N#Cc1cc(-c2ccnc(Nc3ccc(NC(=O)C4CC4)nc3)n2)cnc1N1CC[C@H](F)C1 [DMX-19, Cyclopropanecarboxylic acid (5-{4-[5-cyano-6-((S)-3-fluoro-pyrrolidin-1-yl)-pyridin-3-yl]-pyrimidin-2-ylamino}-pyridin-2-yl)-amide] | < 100 nM | < 100 nM
17 | N#Cc1cc(-c2ccnc(Nc3cccc(C(=O)NC4CCNCC4)c3)n2)cnc1N1CC[C@H](F)C1 [DMX-11, 3-{4-[5-Cyano-6-((S)-3-fluoro-pyrrolidin-1-yl)-pyridin-3-yl]-pyrimidin-2-ylamino}-N-piperidin-4-yl-benzamide] | < 30 nM | < 30 nM
18 | N#Cc1cc(-c2ccnc(Nc3ccnc(CN4CCOCC4)c3)n2)cnc1N1CC[C@H](F)C1 [DMX-99, 2-((S)-3-Fluoro-pyrrolidin-1-yl)-5-[2-(2-morpholin-4-ylmethyl-pyridin-4-ylamino)-pyrimidin-4-yl]-nicotinonitrile] | < 15 nM | < 30 nM
19 | N#Cc1cc(-c2ccnc(Nc3ccc(NC(=O)[C@@H]4CCCN4)nc3)n2)cnc1N1CC[C@H](F)C1 [DMX-65, (S)-Pyrrolidine-2-carboxylic acid (5-{4-[5-cyano-6-((S)-3-fluoro-pyrrolidin-1-yl)-pyridin-3-yl]-pyrimidin-2-ylamino}-pyridin-2-yl)-amide] | < 100 nM | < 30 nM
20 | N#Cc1cc(-c2ccnc(Nc3ccc(C(N)=O)nc3)n2)cnc1N1CC[C@H](F)C1 [DMX-47, 5-{4-[5-Cyano-6-((S)-3-fluoro-pyrrolidin-1-yl)-pyridin-3-yl]-pyrimidin-2-ylamino}-pyridine-2-carboxylic acid amide] | < 30 nM | < 30 nM
21 | N#Cc1cc(-c2ccnc(Nc3ccc(NC(=O)CN4CCOCC4)nc3)n2)cnc1N1CC[C@H](F)C1 [DMX-17, N-(5-{4-[5-Cyano-6-((S)-3-fluoro-pyrrolidin-1-yl)-pyridin-3-yl]-pyrimidin-2-ylamino}-pyridin-2-yl)-2-morpholin-4-yl-acetamide] | < 30 nM | < 30 nM
22 | Cn1cc(Nc2nccc(-c3cnc(N4C5CCC4COC5)c(C#N)c3)n2)cn1 [DMX-45, 5-[2-(1-Methyl-1H-pyrazol-4-ylamino)-pyrimidin-4-yl]-2-(3-oxa-8-aza-bicyclo[3.2.1]oct-8-yl)-nicotinonitrile] | < 100 nM | < 100 nM
23 | N#Cc1cc(-c2ccnc(Nc3ccc(OCCN4CC[C@H](F)C4)nc3)n2)cnc1N1CC[C@H](F)C1 [DMX-70, 2-((S)-3-Fluoro-pyrrolidin-1-yl)-5-(2-{6-[2-((S)-3-fluoro-pyrrolidin-1-yl)-ethoxy]-pyridin-3-ylamino}-pyrimidin-4-yl)-nicotinonitrile] | < 100 nM | < 100 nM
24 | CS(=O)(=O)CCNCc1ccc(Nc2nccc(-c3cnc(N4CC[C@H](F)C4)c(C#N)c3)n2)cn1 [DMX-98, 2-((S)-3-Fluoro-pyrrolidin-1-yl)-5-(2-{6-[(2-methanesulfonyl-ethylamino)-methyl]-pyridin-3-ylamino}-pyrimidin-4-yl)-nicotinonitrile] | < 30 nM | < 30 nM
25 | N#Cc1cc(-c2ccnc(Nc3cnc4c(c3)CNC4)n2)cnc1N1CC[C@H](F)C1 [DMX-109, 5-[2-(6,7-Dihydro-5H-pyrrolo[3,4-b]pyridin-3-ylamino)-pyrimidin-4-yl]-2-((S)-3-fluoro-pyrrolidin-1-yl)-nicotinonitrile] | < 100 nM | < 30 nM
26 | N#Cc1cc(-c2ccnc(Nc3cnn(CCCO)c3)n2)cnc1N1CC[C@H](F)C1 [DMX-52, 2-((S)-3-Fluoro-pyrrolidin-1-yl)-5-{2-[1-(3-hydroxy-propyl)-1H-pyrazol-4-ylamino]-pyrimidin-4-yl}-nicotinonitrile] | < 30 nM | < 100 nM
27 | COCCN(C)Cc1ccc(Nc2nccc(-c3cnc(N4CC[C@H](F)C4)c(C#N)c3)n2)cn1 [DMX-82, 2-((S)-3-Fluoro-pyrrolidin-1-yl)-5-[2-(6-{[(2-methoxy-ethyl)-methyl-amino]-methyl}-pyridin-3-ylamino)-pyrimidin-4-yl]-nicotinonitrile] | < 100 nM | < 100 nM
28 | N#Cc1nc(-c2ccnc(Nc3ccc(CN4CCOCC4)nc3)n2)ccc1N1CC[C@H](O)C1 [DMX-144, 3-((S)-3-Hydroxy-pyrrolidin-1-yl)-6-[2-(6-morpholin-4-ylmethyl-pyridin-3-ylamino)-pyrimidin-4-yl]-pyridine-2-carbonitrile] | < 30 nM | < 30 nM
29 | CN1CCC(Nc2ccc(Nc3nccc(-c4cnc(N5CCC(F)(F)C5)c(C#N)c4)n3)cn2)CC1 [DMX-15, 2-(3,3-Difluoro-pyrrolidin-1-yl)-5-{2-[6-(1-methyl-piperidin-4-ylamino)-pyridin-3-ylamino]-pyrimidin-4-yl}-nicotinonitrile] | < 30 nM | < 100 nM
